Results from publication PMC6195846 (Molecular microbiology, 2018).

Experiments:
RsBluE [1] = target: T1, RsBluE (Cereibacter sphaeroides, UniProt Q3IZR9); assay: ADP-Glo ATPase assay; format: biochemical; settings: ATPase inhibition by product; ADP 20 mM; sarkosyl-solubilized enzyme; 25 C
RsBluE [2] = target: T1, RsBluE; assay: ADP-Glo ATPase assay; format: biochemical; settings: ATPase inhibition; sodium pyrophosphate 10 mM; sarkosyl-solubilized enzyme; 25 C

% decrease in activity at 20 mM (RsBluE [1]) | % decrease in activity at 10 mM (RsBluE [2]) | SMILES
52% |  | Nc1ncnc2c1ncn2[C@@H]1O[C@H](COP(=O)(O)OP(=O)(O)O)[C@@H](O)[C@H]1O [ADP]
 | 12% | O=P(O)(O)OP(=O)(O)O [PPi]
